Values of other authors, collected in patent publication US20090318556A1, “BIOMARKERS FOR DETECTING RADIATION EXPOSURE: METHODS AND USES THEREOF” (priority 2008, published 2009).

Columns and labels:
PPARα = target: T1, PPARα (Mus musculus, UniProt P23204); conditions: mice
T1 construct: host or cells: mice (whole animal, endogenous receptor)
T1 sequence (P23204 1-468): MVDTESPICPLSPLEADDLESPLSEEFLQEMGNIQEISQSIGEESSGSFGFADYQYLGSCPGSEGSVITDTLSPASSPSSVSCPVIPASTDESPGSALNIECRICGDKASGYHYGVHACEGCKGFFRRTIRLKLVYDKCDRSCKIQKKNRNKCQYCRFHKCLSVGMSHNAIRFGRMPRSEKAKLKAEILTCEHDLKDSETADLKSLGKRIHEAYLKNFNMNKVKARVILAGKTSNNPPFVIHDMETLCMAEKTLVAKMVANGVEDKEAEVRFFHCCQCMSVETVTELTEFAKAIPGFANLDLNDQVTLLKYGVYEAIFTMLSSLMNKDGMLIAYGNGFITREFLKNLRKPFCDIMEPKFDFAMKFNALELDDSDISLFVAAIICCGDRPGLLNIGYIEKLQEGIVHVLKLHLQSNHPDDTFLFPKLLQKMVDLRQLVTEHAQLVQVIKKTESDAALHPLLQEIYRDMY

[1] = in vivo, iv

SMILES	urinary excretion reduced after activation of PPARα (PPARα) [fold]	radioactivity in urine relative to plasma [1]
CCCCCC(=O)NCC(=O)O [N-Hexanoylglycine]	20	
Cc1cn([C@H]2C[C@H](O)[C@@H](CO)O2)c(=O)[nH]c1=O [[^3H]thymidine]		approximately 100 times
